# Laboratory results as given in patent US20260345723A1, “Treatments for Opioid-Induced Respiratory Depression” (priority 2023, published 2026).
# Assays:
# CXCR4 [1] = conditions: cited from earlier work
# CCR2 [2] = conditions: selective CCR2 receptor antagonists, mice; cited from earlier work
# CCR2 [3] = conditions: pretreatment with CCR2 antagonist; cited from earlier work
# chemokine release = conditions: cited from earlier work
# tolerance to morphine = conditions: in vivo; cited from earlier work
# CXCR4 [4] = conditions: rat, in vivo
# CCR5 [5] = conditions: rat, in vivo
# GFAP mRNA = conditions: rat, in vivo
# CCR2 [6] = conditions: rat, in vivo
# [7] = tested on: morphine-induced respiratory depression; conditions: rat, in vivo
# [8] = tested on: mu-opioid receptor (OPRM1); conditions: rat, in vivo
# IBA1 mRNA = conditions: rat, in vivo
# CXCR4 [9] = conditions: pretreatment, hypoxic neonatal rats; cited from earlier work
# CCR5 [10] = conditions: cited from earlier work
# CCR5 [11] = conditions: CCR5 antagonist, rats; cited from earlier work
compound,measurement,setting,value
c1cc(CN2CCCNCCNCCCNCC2)ccc1CN1CCCNCCNCCCNCC1 [AMD3100],CXCR4 antagonism,CXCR4 [1],antagonist of CXCR4
same,mobilization of hematopoietic stem cells,CXCR4 [1],mobilize hematopoietic stem cells
COc1ccc(C2(O)CCC(N3CC[C@@H](NC(=O)CNC(=O)c4cccc(C(F)(F)F)c4)C3)CC2)cn1 (stereo partly shown) [INCB 3284],methamphetamine-induced place conditioning,CCR2 [2],reduce
Cc1ccc2c(c1)C1(CCN(CCc3nc(-c4ccccc4)oc3C)CC1)OC(=O)N2 [RS504393],methamphetamine-induced place conditioning,CCR2 [2],reduce
O=C1Nc2ccccc2C2(CCN(CCc3ccc(C(F)(F)F)cc3)CC2)O1 [RS-102895],inflammation caused by CCL2,CCR2 [3],inhibited
CN(C)c1ccc(O)c2c1C[C@H]1C[C@H]3[C@H](N(C)C)C(O)=C(C(N)=O)C(=O)[C@@]3(O)C(O)=C1C2=O [minocycline],chemokine release,chemokine release,inhibits chemokine release
same,tolerance to morphine,tolerance to morphine,attenuates tolerance to morphine
"CN1CC[C@]23c4c5ccc(O)c4O[C@H]2[C@@H](O)C=C[C@H]3[C@H]1C5 [morphine, reference compound]","CXCR4 protein levels, VTA",CXCR4 [4],significantly enhanced CXCR4 protein levels
same,"CCR5 protein levels, NAC",CCR5 [5],significantly reduced CCR5 protein levels
same,"CCR5 protein levels, VTA",CCR5 [5],did not significantly change
same,"GFAP mRNA levels, NAC",GFAP mRNA,significantly enhanced
same,"GFAP mRNA levels, VTA and PFC",GFAP mRNA,no significant changes were detected
same,"CCR2 protein levels, NAC",CCR2 [6],significantly reduced CCR2 protein levels
same,"CCR2 protein levels, PFC",CCR2 [6],significantly enhanced CCR2 protein levels
same,"CCR2 protein levels, VTA",CCR2 [6],significantly enhanced CCR2 protein levels
same,SpO2 (oxygen saturation),[7],under 90%
same,cumulative SpO2,[7],significantly reduced SpO2
same,cumulative respiratory rate,[7],significantly increased respiratory rate
same,"OPRM1 protein levels, VTA",[8],significantly increased OPRM1 protein levels
same,"microglial gene expression, VTA, NAC, PFC",IBA1 mRNA,not altered
dexamethasone,CXCR4 receptors,CXCR4 [9],downregulates CXCR4 receptors
same,neuroprotection,CXCR4 [9],induces neuroprotection
maraviroc,HIV entry into cells that express CCR5,CCR5 [10],inhibits the entry
same,locomotor-activating effects of cocaine,CCR5 [11],reduce
same,rewarding efficacy of cocaine,CCR5 [11],reduce
